The values below come from PubChem BioAssay AID272 (DTP/NCI, 2004).

Molecules are shown by their SMILES. Values joined by “and” are separate entries in the source; they are usually repeats but may differ in a detail not shown here. Equal entries are not always repeated. Inconclusive results are not listed.

This experiment relates to Lewis lung carcinoma i.m., BDF1 mice, T/C %. The experiment is described as follows: NCI In Vivo Anticancer Drug Screen. Data for tumor model Lewis Lung Carcinoma (intramuscular) in B6D2F1 (BDF1) mice. The method, boiled down:
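Value is the ratio of a treated-group measurement (T) to the matching vehicle-control measurement (C), using either survival or tumour size in mice bearing transplanted tumours.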

[1] abbreviates: endpoint: mean tumor weight (est.), dose: 25.0 mg/kg/injection, schedule: Q01DX011 (ip), vehicle: saline with Tween-80, higher = larger tumour.
The mark [2] stands for this setting: endpoint: mean tumor weight (est.), dose: 50.0 mg/kg/injection, schedule: Q01DX011 (ip), vehicle: saline with Tween-80, higher = larger tumour.
The mark [3] stands for this setting: endpoint: mean tumor weight (est.), dose: 100.0 mg/kg/injection, schedule: Q01DX011 (ip), vehicle: saline with Tween-80, higher = larger tumour.
Where [4] appears, read: endpoint: median survival time, dose: 50.0 mg/kg/injection, schedule: Q01DX011 (ip), vehicle: saline with Tween-80, higher = longer survival.

Turning to `O=c1[nH]c(=O)n(C2CC(O)C(CO)O2)cc1F` (stereo unspecified), the T/C by setting is: (endpoint: mean tumor weight, dose: 10.0 mg/kg/injection, schedule: Q01DX009 (ip), vehicle: saline, higher = larger tumour) 59 % of control; (endpoint: mean tumor weight, dose: 10.0 mg/kg/injection, schedule: Q01DX011 (ip), vehicle: other, higher = larger tumour) 83 % of control; (endpoint: mean tumor weight, dose: 20.0 mg/kg/injection, schedule: Q01DX009 (ip), vehicle: saline, higher = larger tumour) 72 % of control; (endpoint: mean tumor weight, dose: 20.0 mg/kg/injection, schedule: Q01DX011 (ip), vehicle: other, higher = larger tumour) 29 % of control; (endpoint: mean tumor weight, dose: 20.0 mg/kg/injection, schedule: Q01DX011 (ip), vehicle: saline, higher = larger tumour) 31 % of control and 42 % of control; (endpoint: mean tumor weight, dose: 25.0 mg/kg/injection, schedule: Q01DX011 (ip), vehicle: saline, higher = larger tumour) 58 % of control. For the same compound, the T/C was 65 % of control (endpoint: mean tumor weight, dose: 40.0 mg/kg/injection, schedule: Q01DX009 (ip), vehicle: saline, higher = larger tumour); 10 % of control and 17 % of control (endpoint: mean tumor weight, dose: 40.0 mg/kg/injection, schedule: Q01DX011 (ip), vehicle: saline, higher = larger tumour); 18 % of control (endpoint: mean tumor weight, dose: 50.0 mg/kg/injection, schedule: Q01DX011 (ip), vehicle: saline, higher = larger tumour); 16 % of control (endpoint: mean tumor weight, dose: 80.0 mg/kg/injection, schedule: Q01DX009 (ip), vehicle: saline, higher = larger tumour); 4 % of control (endpoint: mean tumor weight, dose: 80.0 mg/kg/injection, schedule: Q01DX011 (ip), vehicle: other, higher = larger tumour); 7 % of control (endpoint: mean tumor weight, dose: 80.0 mg/kg/injection, schedule: Q01DX011 (ip), vehicle: saline, higher = larger tumour). The T/C by setting is: (endpoint: mean tumor weight, dose: 100.0 mg/kg/injection, schedule: Q01DX011 (ip), vehicle: saline, higher = larger tumour) 3 % of control; (endpoint: median survival time, dose: 10.0 mg/kg/injection, schedule: Q01DX011 (ip), vehicle: other, higher = longer survival) 98 % of control; (endpoint: median survival time, dose: 10.0 mg/kg/injection, schedule: Q01DX011 (ip), vehicle: saline, higher = longer survival) 107 % of control and 120 % of control; (endpoint: median survival time, dose: 19.0 mg/kg/injection, schedule: Q01DX007 (sc), vehicle: saline, higher = longer survival) 100 % of control; (endpoint: median survival time, dose: 20.0 mg/kg/injection, schedule: Q01DX011 (ip), vehicle: other, higher = longer survival) 108 % of control; (endpoint: median survival time, dose: 20.0 mg/kg/injection, schedule: Q01DX011 (ip), vehicle: saline, higher = longer survival) 91 % of control and 112 % of control and 123 % of control. Also, the T/C (endpoint: median survival time, dose: 20.0 mg/kg/injection, schedule: Q01DX011 (ip), vehicle: water, higher = longer survival) was 105 % of control; the T/C (endpoint: median survival time, dose: 25.0 mg/kg/injection, schedule: Q01DX011 (ip), vehicle: saline, higher = longer survival) is 108 % of control; the T/C (endpoint: median survival time, dose: 31.0 mg/kg/injection, schedule: Q01DX007 (sc), vehicle: saline, higher = longer survival) was 121 % of control; the T/C (endpoint: median survival time, dose: 40.0 mg/kg/injection, schedule: Q01DX009 (ip), vehicle: saline, higher = longer survival) was 114 % of control and 115 % of control; the T/C (endpoint: median survival time, dose: 40.0 mg/kg/injection, schedule: Q01DX011 (ip), vehicle: saline, higher = longer survival) was 97 % of control and 100 % of control; the T/C (endpoint: median survival time, dose: 40.0 mg/kg/injection, schedule: Q01DX011 (ip), vehicle: water, higher = longer survival) is 113 % of control. The T/C (endpoint: median survival time, dose: 50.0 mg/kg/injection, schedule: Q01DX009 (ip), vehicle: saline, higher = longer survival) is 101 % of control; the T/C (endpoint: median survival time, dose: 80.0 mg/kg/injection, schedule: Q01DX009 (ip), vehicle: saline, higher = longer survival) is 124 % of control; the T/C (endpoint: median survival time, dose: 80.0 mg/kg/injection, schedule: Q01DX011 (ip), vehicle: saline, higher = longer survival) is 153 % of control; the T/C (endpoint: median survival time, dose: 80.0 mg/kg/injection, schedule: Q01DX011 (ip), vehicle: water, higher = longer survival) is 121 % of control; the T/C (endpoint: median survival time, dose: 86.0 mg/kg/injection, schedule: Q01DX007 (sc), vehicle: saline, higher = longer survival) is 121 % of control.
As to `CCCCN(C)C(=S)S[Te](SC(=S)N(C)CCCC)(SC(=S)N(C)CCCC)SC(=S)N(C)CCCC`, the T/C by setting is: (endpoint: mean tumor weight (est.), dose: 100.0 mg/kg/injection, schedule: Q01DX011 (ip), vehicle: saline, higher = larger tumour) 59 % of control; (endpoint: mean tumor weight (est.), dose: 200.0 mg/kg/injection, schedule: Q01DX011 (ip), vehicle: saline, higher = larger tumour) 36 % of control; (endpoint: mean tumor weight (est.), dose: 400.0 mg/kg/injection, schedule: Q01DX011 (ip), vehicle: saline, higher = larger tumour) 17 % of control; (endpoint: median survival time, dose: 100.0 mg/kg/injection, schedule: Q01DX011 (ip), vehicle: saline, higher = longer survival) 114 % of control; (endpoint: median survival time, dose: 200.0 mg/kg/injection, schedule: Q01DX011 (ip), vehicle: saline, higher = longer survival) 110 % of control; (endpoint: median survival time, dose: 400.0 mg/kg/injection, schedule: Q01DX011 (ip), vehicle: saline, higher = longer survival) 121 % of control.
In the case of `CC1=Nc2ccccc2/C1=C\c1c(C)[nH]c2ccccc12`, the T/C by setting is: under setting [1], 52 % of control; under setting [2], 68 % of control; under setting [3], 29 % of control; (endpoint: median survival time, dose: 25.0 mg/kg/injection, schedule: Q01DX011 (ip), vehicle: saline with Tween-80, higher = longer survival) 104 % of control; under setting [4], 93 % of control; (endpoint: median survival time, dose: 100.0 mg/kg/injection, schedule: Q01DX011 (ip), vehicle: saline with Tween-80, higher = longer survival) 100 % of control.
In the case of `O=c1[nH]c(=O)n([C@H]2CCCO2)cc1F`, the T/C was 112 % of control (endpoint: mean tumor weight (est.), dose: 39.0 mg/kg/injection, schedule: Q01DX011 (ip), vehicle: saline, higher = larger tumour); 40 % of control (endpoint: mean tumor weight (est.), dose: 65.0 mg/kg/injection, schedule: Q01DX011 (ip), vehicle: saline, higher = larger tumour); 112 % of control (endpoint: median survival time, dose: 25.0 mg/kg/injection, schedule: Q04DX004 (ip), vehicle: other, higher = longer survival); 90 % of control (endpoint: median survival time, dose: 39.0 mg/kg/injection, schedule: Q01DX011 (ip), vehicle: saline, higher = longer survival); 100 % of control (endpoint: median survival time, dose: 50.0 mg/kg/injection, schedule: Q04DX004 (ip), vehicle: other, higher = longer survival); 119 % of control (endpoint: median survival time, dose: 65.0 mg/kg/injection, schedule: Q01DX011 (ip), vehicle: saline, higher = longer survival). In addition, the T/C is, setting by setting: (endpoint: median survival time, dose: 100.0 mg/kg/injection, schedule: Q04DX004 (ip), vehicle: other, higher = longer survival) 100 % of control; (endpoint: median survival time, dose: 200.0 mg/kg/injection, schedule: Q04DX004 (ip), vehicle: other, higher = longer survival) 103 % of control.
In the case of `CN(C)CCCNc1c2ccccc2nc2cccc([N+](=O)[O-])c12`, the T/C (endpoint: median survival time, dose: 0.1 mg/kg/injection, schedule: Q02DX011 (ip), vehicle: saline, higher = longer survival) is 88 % of control; the T/C (endpoint: median survival time, dose: 2.0 micrograms/kg/injection, schedule: Q01DX009 (ip), vehicle: saline, higher = longer survival) was 120 % of control; the T/C (endpoint: median survival time, dose: 4.0 micrograms/kg/injection, schedule: Q01DX009 (ip), vehicle: saline, higher = longer survival) is 92 % of control and 104 % of control; the T/C (endpoint: median survival time, dose: 16.0 micrograms/kg/injection, schedule: Q01DX009 (ip), vehicle: saline, higher = longer survival) is 109 % of control; the T/C (endpoint: median survival time, dose: 32.0 micrograms/kg/injection, schedule: Q01DX009 (ip), vehicle: saline, higher = longer survival) was 100 % of control; the T/C (endpoint: median survival time, dose: 64.0 micrograms/kg/injection, schedule: Q01DX009 (ip), vehicle: saline, higher = longer survival) was 88 % of control and 107 % of control.
For `OCCNC1c2ccccc2-c2ccccc21`, the T/C is 90 % of control under setting [1], 91 % of control under setting [2], 67 % of control under setting [3] and 112 % of control under setting [4].
Take `CCCCC(CCC)(CCN)CCCC`: the T/C (endpoint: mean tumor weight (est.), dose: 1.0 mg/kg/injection, schedule: Q01DX011 (ip), vehicle: saline with Tween-80, higher = larger tumour) was 90 % of control; the T/C (endpoint: mean tumor weight (est.), dose: 2.0 mg/kg/injection, schedule: Q01DX011 (ip), vehicle: saline with Tween-80, higher = larger tumour) was 97 % of control; the T/C (endpoint: mean tumor weight (est.), dose: 4.0 mg/kg/injection, schedule: Q01DX011 (ip), vehicle: saline with Tween-80, higher = larger tumour) was 102 % of control; the T/C (endpoint: mean tumor weight (est.), dose: 8.0 mg/kg/injection, schedule: Q01DX011 (ip), vehicle: saline with Tween-80, higher = larger tumour) was 69 % of control; the T/C (endpoint: median survival time, dose: 1.0 mg/kg/injection, schedule: Q01DX011 (ip), vehicle: saline with Tween-80, higher = longer survival) is 103 % of control; the T/C (endpoint: median survival time, dose: 2.0 mg/kg/injection, schedule: Q01DX011 (ip), vehicle: saline with Tween-80, higher = longer survival) is 92 % of control. Moreover, the T/C reads like this: (endpoint: median survival time, dose: 4.0 mg/kg/injection, schedule: Q01DX011 (ip), vehicle: saline with Tween-80, higher = longer survival) 94 % of control; (endpoint: median survival time, dose: 8.0 mg/kg/injection, schedule: Q01DX011 (ip), vehicle: saline with Tween-80, higher = longer survival) 92 % of control.
Take `O=C(CCl)Nc1ccc(C(=O)O)cc1`: the T/C (endpoint: median survival time, dose: 3.75 mg/kg/injection, schedule: Q01DX011 (ip), vehicle: saline with Tween-80, higher = longer survival) was 106 % of control; the T/C (endpoint: median survival time, dose: 7.5 mg/kg/injection, schedule: Q01DX011 (ip), vehicle: saline with Tween-80, higher = longer survival) was 97 % of control; the T/C (endpoint: median survival time, dose: 15.0 mg/kg/injection, schedule: Q01DX011 (ip), vehicle: saline with Tween-80, higher = longer survival) was 100 % of control.
As for `COC(=O)[CH](C[N+](=O)[O-])[Hg][Cl]` (stereo unspecified), the T/C by setting is: (endpoint: mean tumor weight (est.), dose: 3.12 mg/kg/injection, schedule: Q01DX011 (ip), vehicle: saline, higher = larger tumour) 79 % of control; (endpoint: mean tumor weight (est.), dose: 6.25 mg/kg/injection, schedule: Q01DX011 (ip), vehicle: saline, higher = larger tumour) 69 % of control; (endpoint: mean tumor weight (est.), dose: 12.5 mg/kg/injection, schedule: Q01DX011 (ip), vehicle: saline, higher = larger tumour) 71 % of control; (endpoint: median survival time, dose: 3.12 mg/kg/injection, schedule: Q01DX011 (ip), vehicle: saline, higher = longer survival) 107 % of control; (endpoint: median survival time, dose: 6.25 mg/kg/injection, schedule: Q01DX011 (ip), vehicle: saline, higher = longer survival) 115 % of control; (endpoint: median survival time, dose: 12.5 mg/kg/injection, schedule: Q01DX011 (ip), vehicle: saline, higher = longer survival) 88 % of control.
